# From paper PMC5532363, “Synergistic blending of high-valued heterocycles inhibits growth of Plasmodium falciparum in culture and P. berghei infection in mouse model” (Scientific Reports, 2017)
# Where two headings read alike, the source gives them in different places.
# Key:
# [1] = test system: P. falciparum 3D7 (Pf3D7), CQ sensitive; test: SYBR Green I growth inhibition assay, asynchronous P. falciparum 3D7 culture; assay type: cell-based, Plasmodium falciparum; conditions: for IC50 (SE) µM / IC50 (SE) µg/mL: Pf3D7, asynchronous culture; for IC50: Plasmodium falciparum
# From the text: Antimalarial activity of all the listed Pht analogues was initially assessed on asynchronous cultures of P. falciparum 3D7 (Pf3D7) clone using the SYBR Green assay. […] The mean IC50 values are based on three separate experiments (Table 1).
# The laboratory-adapted P. falciparum strains 3D7 (Africa; CQ sensitive) and W2 (Africa; CQ resistant), were acquired from Malaria Research and Reference Reagent Resource Center (MR4) (Manassas, VA, USA) and maintained with type O +ve erythrocytes suspended in continuous complete culture medium as described. Complete culture media consisted of 10.43 g/litre of RPMI 1640-HEPES supplemented with 10% (vol/vol) human AB serum, 92.6 mg/litre L-glutamine, 50 mg/liter hypoxanthine, 2 g/litre sodium bicarbonate (Sigma-Aldrich, St. Louis, MO). Incubation of cultures was at 37 °C and maintained in a low oxygen atmosphere (5% O2, 5% CO2, 90% N). The levels of parasitemia in the cultures were maintained at between 2 and 10%, with 5% hematocrit. Media was changed after every 24 hours and parasitemia monitored every 48 hours. Synchronous cultures were prepared by sorbitol lysis. Stock solutions of the Pht, Pht analogues, and DHA were prepared in absolute dimethyl sulfoxide (DMSO) while CQ was prepared in distilled water. The prepared drug stock solutions were used immediately or stored at −80 °C for not longer than one month before use. Stock solutions were further diluted in serum free RPMI 1640 media (stock solution solvent final conc. 0.05%) before performing a 2-fold serial dilution to achieve dose ranges of 0.2 µM to 100 µM (Pht and derivatives), 7.8 to 2,000 nM (CQ) and 0.17 to 87.5 nM (DHA). 25 μL of the drug diluents were aliquoted into 96 well plates and used immediately. Alternatively, the stock solutions were diluted in distilled water, 2-fold serial dilution performed on a 96 well plate and allowed to air dry in a laminar flow hood after which dried plates were stored at 4 °C until use. SYBR Green I assay technique with additional modification was used for drug susceptibility testing of the parasites. Parasite cultures of >1% parasitemia were diluted to 1% parasitemia and 2% hematocrit and 200 μL were transferred onto drug pre-dosed plates and incubated at 37 °C for 90 hours, [40]. Drug exposure was terminated by freezing the drug plates at −80 °C for 24 hours after which lysis buffer containing (per liter) 100 mM Tris-HCl, 10 mM EDTA, 0.016% Saponin, 1.6% triton X-100 and 20X SYBR Green I dye was added and the sample incubated for 2 hours in the dark. Relative fluorescence units (RFU) were read using the Perkin Elmer Wallac 1420 fluorescence plate reader, with excitation and emission wavelengths of 485 nm and 535 nm respectively. The readouts values were aligned with corresponding drug doses and analysis performed by Graph-pad Prism software. The drug concentrations (x value) were transformed using X = Log[X] and plotted against the counts (y values) and the data analysed by non-linear regression (sigmoid dose-response/variable slope equation) to yield the IC50.
# P. berghei NK65 = test: Modified Peter's 4-day suppressive test in P. berghei NK65 infected Swiss albino mice; assay type: in vivo, Plasmodium berghei; conditions: 6h/6u 50 mg/kg, artemisinin 5 mg/kg, s.c. for four consecutive days, n = 6/group
# Experimental: The antimalarial effect of two active analogues, 6h and 6u (administered at 50 mg/kg of body weight), was determined in mice infected with P. berghei NK65, a strain, which results in high levels of blood-stage parasitemia. […] However, the 6u analogue had better antimalarial efficacy than the 6h analogue (Fig. 6A). As such, we then evaluated the efficacy of 6u (50 mg/kg) in combination with artemisinin (5 mg/kg of body weight) at reduced dosage in the murine malaria model. […] The median survival times of animals treated with Pht 6u alone, as well in combination with ART were 23 and 27.5 days, respectively (P<0.001).
# Figure 6 Antimalarial effect of Pht analogs (6h and 6u) alone and in combination with Artemisinin (6u and ART) on parasitemia and survival in mice infected with P. berghei NK65. Mice were injected with 1 × 10^7 P. berghei infected RBCs. After 48 hours mice were treated with control (PBS: untreated), 6h and 6u (alone), and 6u in combination with artemisinin (all injected subcutaneously) for four consecutive days. The % of parasitemia was determined for the groups on days 5, 8 and 15 by randomly selecting 10 different optical fields on blood smears. (A) Administration of 6h and 6u (alone), and 6 u in combination with ART. Data are the mean ± SEM from six animals per treatment group. (B) Survival in the treatment groups (n = 6/group). (C) Photomicrograph of blood smears of untreated versus treatment groups at day 15 post infection (100x magnification). ART, Artemisinin; *P < 0.05. TEXT PRINTED IN THE PICTURE: (B) Phthalimide 6h: MST- 19.5 | (B) Phthalimide 6u: MST- 23 | (B) Artemisinin: MST- 21.5 | (B) Phthalimide 6u+Artemisinin: MST- 27.5
# All animal experiments were performed in female Swiss albino mice (4 to 5 weeks old, weighing 25 to 30 g). The animals were housed under standard controlled conditions at 25 °C with a 12-h light-dark cycle and access to sterilized food pellets and water. All experiments were carried out in accordance with the standard procedures approved by the Animal Ethics Committee of the University of Delhi South Campus, under the Control and Supervision of Experiments on Animals (CPCSEA), Ministry of Social Justice and Empowerment, Government of India. […] The antimalarial activity was carried out in accordance with a slightly modified version of the Peter’s 4-day suppressive test[43]. The animals were assigned to each group (n = 6). Subsequently, after 48 hour of postinfection, the parasitemia level reached 1 to 2%, and all the groups of mice were treated by subcutaneous (s.c.) injection with compounds 6h and 6u alone as well in combination with artemisinin solubilized in DMSO. One group was kept as a control and treated with physiological saline. The efficacy of the treatment was monitored by measuring the parasitemia and survival on days 5, 8 and 15 posttreatments by obtaining thin smears of blood withdrawn from the tail vein of infected mice and staining with 10% Giemsa. The level of parasitemia was determined by counting infected and noninfected erythrocytes from 10 to 15 randomly selected optical fields at 100x magnification and expressed as the number of infected erythrocytes per 100 erythrocytes. The survival of mice was recorded and observed for external symptoms, such as change in body weight, ruffled fur, lethargy and paralysis, until 30 or 40 days posttreatment. The reduction in the level of parasitemia was taken as the index for the curative activities of the drugs. The percentage of parasitemia was calculated manually with the Cell Counting Aid software[44] using the formula (total no. of parasitized RBCs)/(total no. of RBCs) × 100.
# For in-vivo experiments, statistical differences between two groups were determined by Student’s t test and between multiple groups using one-way analysis of variance (ANOVA), with P values of <0.05, by GraphPad Prism (version 5.01; GraphPad Software, Inc., CA). […]
# [2] = SYBR Green, mean of three experiments, NDR / No IC50 = no dose response
# [3] = 3D7, Pf3D7, asynchronous culture, SYBR Green, mean of three experiments, NDR / No IC50 = no dose response, read-out: IC50 (SE) µM
# [4] = 3D7, Pf3D7, asynchronous culture, SYBR Green, mean of three experiments, NDR / No IC50 = no dose response, read-out: IC50 (SE) µg/mL
"IC50 (SE) µM [1, 2]","IC50 (SE) µg/mL [1, 2]","IC50 [1, 3]","IC50 [1, 4]",melting point,SMILES,other results
No IC50,No IC50,,,,CCOC(=O)Cn1cc(Cn2c([C@@H](C(C)C)N3C(=O)c4ccccc4C3=O)nc3ccccc32)nn1 [6a′],
,,7.2 µM,3.8 µg/mL,,CC(C)[C@H](c1nc2ccccc2n1Cc1cn(CC(=O)O)nn1)N1C(=O)c2ccccc2C1=O [6b′],
,,48.3 µM,20 µg/mL,,CC(C)[C@H](c1nc2ccccc2n1Cc1cn(C2O[C@@H](CO)C(O)[C@@H](O)[C@@H]2O)nn1)N1C(=O)c2ccccc2C1=O (stereo partly shown) [6d′],
,,16.7 µM,6.9 µg/mL,,CCCCCCn1cc(Cn2c([C@@H](C(C)C)N3C(=O)c4ccccc4C3=O)nc3ccccc32)nn1 [6e′],
,,,,,"C[C@@H]1CC[C@H]2[C@@H](C)C(=O)O[C@@H]3O[C@@]4(C)CC[C@@H]1[C@]32OO4 [Artemisinin, reference compound]",median survival time (MST) (P. berghei NK65): 21.5 days
,,,,,"CCN(CC)CCCC(C)Nc1ccnc2cc(Cl)ccc12 (stereo not shown) [CQ, chloroquine, reference compound]","IC50 ([1]; 3D7, read-out: IC50 (SE) µM): 0.03 µM; IC50 ([1]; 3D7, read-out: IC50 (SE) µg/mL): 0.015 µg/mL"
NDR,NDR,,,,CC(C)C[C@H](c1nc2ccccc2n1Cc1cn(-c2ccc(Cl)cc2)nn1)N1C(=O)c2ccccc2C1=O [Compound 6b],
,,17.3 µM,8.8 µg/mL,,CC(C)C[C@H](c1nc2ccccc2n1Cc1cn(-c2ccc(F)cc2)nn1)N1C(=O)c2ccccc2C1=O [Compound 6c],
NDR,NDR,,,,COc1ccc(-n2cc(Cn3c([C@@H](CC(C)C)N4C(=O)c5ccccc5C4=O)nc4ccccc43)nn2)cc1 [Compound 6d],
,,25 µM,13 µg/mL,,Cc1ccc(-n2cc(Cn3c([C@@H](CC(C)C)N4C(=O)c5ccccc5C4=O)nc4ccccc43)nn2)cc1 [Compound 6e],
NDR,NDR,,,211 to 213 °C,CC[C@@H](C)[C@H](c1nc2ccccc2n1Cc1cn(-c2ccccc2)nn1)N1C(=O)c2ccccc2C1=O [Compound 6f],
NDR,NDR,,,194 to 196 °C,CC[C@@H](C)[C@H](c1nc2ccccc2n1Cc1cn(-c2ccc(Cl)cc2)nn1)N1C(=O)c2ccccc2C1=O [Compound 6g],
,,40 µM,22.5 µg/mL,135 to 137 °C,CC[C@@H](C)[C@H](c1nc2ccccc2n1Cc1cn(-c2ccc(OC)cc2)nn1)N1C(=O)c2ccccc2C1=O [Compound 6i],
,,73 µM,33.4 µg/mL,198 to 201 °C,CC[C@@H](C)[C@H](c1nc2ccccc2n1Cc1cn(-c2ccc(C)cc2)nn1)N1C(=O)c2ccccc2C1=O [Compound 6j],
,,30.9 µM,16 µg/mL,221 to 223 °C,CC(C)[C@H](c1nc2ccccc2n1Cc1cn(-c2ccccc2)nn1)N1C(=O)c2ccccc2C1=O [Compound 6k],
NDR,NDR,,,182 to 184 °C,CC(C)[C@H](c1nc2ccccc2n1Cc1cn(-c2ccc(Cl)cc2)nn1)N1C(=O)c2ccccc2C1=O [Compound 6l],
,,9.6 µM,5.5 µg/mL,125 to 127 °C,COc1ccc(-n2cc(Cn3c([C@@H](C(C)C)N4C(=O)c5ccccc5C4=O)nc4ccccc43)nn2)cc1 [Compound 6n],
,,23.5 µM,17.5 µg/mL,169 to 171 °C,Cc1ccc(-n2cc(Cn3c([C@@H](C(C)C)N4C(=O)c5ccccc5C4=O)nc4ccccc43)nn2)cc1 [Compound 6o],
,,62 µM,31 µg/mL,147 to 149 °C,CCOC(=O)Cn1cc(Cn2c([C@@H](CC(C)C)N3C(=O)c4ccccc4C3=O)nc3ccccc32)nn1 [Compound 6p],
,,8.4 µM,4.1 µg/mL,,CC(C)C[C@H](c1nc2ccccc2n1Cc1cn(CC(=O)O)nn1)N1C(=O)c2ccccc2C1=O [Compound 6q],
,,28 µM,14 µg/mL,146 to 148 °C,CCCCCCn1cc(Cn2c([C@@H](CC(C)C)N3C(=O)c4ccccc4C3=O)nc3ccccc32)nn1 [Compound 6t],
No IC50,No IC50,,,,CCOC(=O)Cn1cc(Cn2c([C@@H]([C@H](C)CC)N3C(=O)c4ccccc4C3=O)nc3ccccc32)nn1 [Compound 6v],
,,15.6 µM,11.6 µg/mL,,CC[C@@H](C)[C@H](c1nc2ccccc2n1Cc1cn(CC(=O)O)nn1)N1C(=O)c2ccccc2C1=O [Compound 6w],
No IC50,No IC50,,,,CC[C@@H](C)[C@H](c1nc2ccccc2n1Cc1c[nH]nn1)N1C(=O)c2ccccc2C1=O [Compound 6z],
,,0.003 µM,0.0017 µg/mL,,"C[C@H]1[C@@H](O)O[C@@H]2O[C@@]3(C)CC[C@H]4[C@H](C)CC[C@@H]1[C@@]24OO3 [DHA, dihydroartemisinin, reference compound]",
,,5.14 µM,0.8 µg/mL,,"O=C1NC(=O)c2ccccc21 [I, Phthalimide, reference compound]",
